# Measured values: patent US10933009B2, “Formulations and methods for treating dermatological disorders and diseases” (VAPOGENIX, INC., priority 2011, dated 2021)
# Experiment: Isoflurane remaining in uncapped vials, determined by weighing over time
# Type: physicochemical
# Protocol: In the Examples that follow, the stability of isoflurane in the described compositions was determined in two ways. First, the compositions were examined for the presence of phase separation at the macroscopic level. Secondly, isoflurane content of the compositions was determined by weighing the remaining isoflurane in the composition when they were left uncapped over time. Briefly, glass vials were filled with 5-10 ml of the composition vehicle and then weighed; one of them received only vehicle (i.e., no isoflurane) and served as control. The other vials received varying amounts of isoflurane. They were left uncapped in the hood. Over time, the vials were weighed to see if the isoflurane stayed in the composition or had evaporated. The amount evaporated over time in the vehicle control was subtracted from that in the isoflurane-containing composition.
# The pure form of isoflurane is a volatile anesthetic. In order to assess the volatility of isoflurane, two vials received the indicated amounts of pure form isoflurane. The vials were placed in the chemical fume hood and left uncapped. The vials were weighed at the indicated times to determine the amount of evaporated isoflurane. As it is shown in the table below 0.7893 g isoflurane was evaporated within 3 hours, while 3.4825 g isoflurane took approximately 8 hrs to evaporate completely. These amounts of isoflurane are similar to the amounts of isoflurane that were used to prepare the isoflurane compositions in the Examples that follow.
# [1] = pure form of isoflurane 0.7893 g, uncapped vial
# [2] = pure form of isoflurane 3.4825 g, uncapped vial
structure (smiles),measurement,setting,value
FC(F)OC(Cl)C(F)(F)F (stereo not drawn) [isoflurane],time for isoflurane to evaporate,"0.7893 g pure isoflurane, uncapped vial in fume hood",≤ 3 h
same,time for isoflurane to evaporate completely,"3.4825 g pure isoflurane, uncapped vial in fume hood",approximately 8 hrs
same,0 h (% remaining iso),"pure form of isoflurane 0.7893 g, uncapped vial in fume hood",100%
same,0.25 h (% remaining iso),[1],85%
same,1 h (% remaining iso),[1],52%
same,2 h (% remaining iso),[1],14%
same,3 h (% remaining iso),[1],0%
same,0 h (% remaining iso),"pure form of isoflurane 3.4825 g, uncapped vial in fume hood",100%
same,0.25 h (% remaining iso),[2],96%
same,1 h (% remaining iso),[2],86%
same,2 h (% remaining iso),[2],75%
same,3 h (% remaining iso),[2],62%
same,5 h (% remaining iso),"pure form of isoflurane 3.4825 g, uncapped vial, 5 h",38%
same,7 h,"pure form of isoflurane 3.4825 g, uncapped vial, 7 h",13%
same,8 h,"pure form of isoflurane 3.4825 g, uncapped vial, 8 h",3%
